Test [1] has as its system M2R. Put plainly: Ligand binding-induced difference ATR-FTIR spectroscopy, amide-I band. The following applies: lipid-reconstituted M2R-BRIL, 293 K; for ligand efficacy class suggested by amide-I spectral features: H2O, compared with Scop- and NMS-bound spectra; for population of active-like M2R conformation from amide-I band ratio (in words): 1 mM ligand. Details: species or system human. The protocol: Red and purple lines correspond to ACh- and Atro-bound spectra, respectively. To quantitatively examine the change in the amide-I band specific to ligand efficacy, the ratio between the band strength of (2)1656 (+)/(1)1666 (−) cm^−1 of ACh-bound spectra at high frequency and (2)1656 (+)/(3)1640 (−) cm^−1 of ACh-bound spectra at low frequency is calculated and reported as efficacy rate. b Ligand-dependent spectral changes of amide-I band originating from C=O stretch of α-helix in 1700–1620 cm^−1 region. Red, orange, and purple lines correspond to agonist-, partial agonist-, and antagonist-bound spectra, respectively. […] The error values were calculated from three replicate experiments. Cyan dotted line indicates the value = 1.
The ratio of the amide-I band was assumed to be the ligand efficacy (Fig. 2b, c). Strikingly, all agonists have an amide-I band ratio >1. The amide-I band ratio for both the partial agonists and the antagonists were <1, with the exception of Xano.
A 2 μL aliquot of the lipid-reconstituted M2R suspensions was placed on the surface of a silicon ATR crystal (three internal total reflection, Smith Detection, UK. After it was dried in a gently natural drying, the sample was rehydrated with a solvent containing 200 mM phosphate (pH 7.5) buffer with 140 mM NaCl, 3 mM MgCl2 at a flow rate of 0.6 mL min^−1 through a flow cell, of which the temperature was maintained at 20 °C by circulating water. ATR-FTIR spectra were first recorded at 2 cm^−1 resolution, using an FTIR spectrometer (Bio-rad FTS7000, Agilent, CA, USA) equipped with a liquid nitrogen-cooled MCT detector (an average of 768 interferograms). After the FTIR spectrum had been recorded in the second buffer with 1 mM ligand, the difference FTIR spectrum was calculated by subtracting the data obtained for the first and second buffer. The cycling procedure was repeated two to seven times, and the difference spectra were calculated as the average of the presence minus absence spectra of ligand. The spectral contributions of the unbound ligand, the protein/lipid shrinkage, and water/buffer components were corrected (Supplementary Figure 2–5).

The target in test [2] is T1, M2R (Homo sapiens, UniProt P08172).
T1 construct: expressed in transfected cells; host or cells: HEK293A
T1 sequence (P08172 1-466): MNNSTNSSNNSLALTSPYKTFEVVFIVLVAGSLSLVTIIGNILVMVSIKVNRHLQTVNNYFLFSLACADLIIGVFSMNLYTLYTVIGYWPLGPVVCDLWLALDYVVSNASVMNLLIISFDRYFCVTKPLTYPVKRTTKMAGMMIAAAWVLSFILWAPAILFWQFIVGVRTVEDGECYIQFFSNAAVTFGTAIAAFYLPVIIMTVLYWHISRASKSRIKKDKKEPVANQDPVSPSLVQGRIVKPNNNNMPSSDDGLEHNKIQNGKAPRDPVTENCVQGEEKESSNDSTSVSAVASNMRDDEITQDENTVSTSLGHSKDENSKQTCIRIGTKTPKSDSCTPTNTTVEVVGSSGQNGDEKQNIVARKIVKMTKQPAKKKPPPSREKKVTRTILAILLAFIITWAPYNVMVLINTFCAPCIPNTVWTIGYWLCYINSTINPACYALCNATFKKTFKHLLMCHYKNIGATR
Nature of the test: NanoBiT G-protein dissociation assay (Gi activation). The following applies: HEK293A cells expressing M2R and NanoBiT-Gi1; for Gi-protein activity relative to ACh (in words): Fig. 3a. The test is classed as cell-based. The procedure:
M2R-induced G-protein dissociation was measured by a NanoBiT-G-protein dissociation assay, in which the interaction between a Gα subunit and a Gβγ subunit was monitored by the NanoBiT system (Promega). Specifically, a NanoBiT-Gi1 protein consisting of Gαi1 subunit fused with a large fragment (LgBiT) at the α-helical domain and an N-terminally small fragment (SmBiT)-fused Gγ2 subunit with a C68S mutation was expressed along with untagged Gβ1 subunit and M2R. HEK293A cells were seeded in a 10-cm culture dish at a concentration of 2 × 10^5 cells mL^−1 (10 mL per well in DMEM (Nissui) supplemented with 10% fetal bovine serum (Gibco), glutamine, penicillin, and streptomycin), 1 day before transfection. Transfection solution was prepared by combining 25 µL (per dish hereafter) of polyethylenimine (PEI) Max solution (1 mg mL^−1; Polysciences), 1 mL of Opti-MEM (Thermo Fisher Scientific), and a plasmid mixture consisting of 1 µg M2R (or an empty plasmid for mock transfection), 500 ng LgBiT-containing Gαi1 subunit, 2.5 µg Gβ1 subunit, and 2.5 µg SmBiT-fused Gγ2 subunit (C68S). After an incubation for 1 day, the transfected cells were harvested with 0.5 mM EDTA-containing Dulbecco’s PBS, centrifuged and suspended in 10 mL of HBSS containing 0.01% bovine serum albumin (BSA; fatty acid–free grade; SERVA) and 5 mM HEPES (pH 7.4) (assay buffer). The cell suspension was dispensed in a white 96-well plate at a volume of 80 µL per well and loaded with 20 µL of 50 µM coelenterazine (Carbosynth) diluted in the assay buffer. After a 2 h incubation at room temperature, the plate was measured for baseline luminescence (Spectramax L, Molecular Devices) and a titrated test ligand (20 µL; […] of final concentrations) was manually added. The plate was immediately read at room temperature for the following 5 min as a kinetics mode, at measurement intervals of 20 s. The luminescence counts over 3–5 min after ligand addition were averaged and normalized to the initial count. The fold-change values were further normalized to that of vehicle-treated samples and used to plot the G-protein dissociation response. Using the Prism 8 software (GraphPad Prism), the G-protein dissociation signals were fitted to a four-parameter sigmoidal concentration-response curve.

Test [3] relates to M2R. The settings on record: 1 mM ligand, buffer exchange without ligand; cited from earlier work.
Test [4] has as its system M2R. Put plainly: Ligand dissociation kinetics from time-course ATR-FTIR (amide-I band). The test is classed as binding, human. The following applies: 1 mM ligand washed out by buffer exchange, 0.6 mL min-1, 20 °C; single exponential fit. The protocol:
Each ligand (1 mM concentration) is added at 30 min time point and is washed out at 90 min time point by exchanging to the buffer without ligand at a flow rate of 0.6 mL min^−1 through a flow cell, of which the temperature is maintained at 20 °C by circulating water. […] Ligand dissociation phase is highlighted by light blue. b Time trace of the integrated absorbance signal at dissociation phase in the amide-I band for each ligand. […] Dotted lines represent the fitting curve obtained by single exponential function.
After the FTIR spectrum had been recorded in the second buffer with 1 mM ligand, the difference FTIR spectrum was calculated by subtracting the data obtained for the first and second buffer. The cycling procedure was repeated two to seven times, and the difference spectra were calculated as the average of the presence minus absence spectra of ligand. The spectral contributions of the unbound ligand, the protein/lipid shrinkage, and water/buffer components were corrected (Supplementary Figure 2–5).
All functional and statistical data were analyzed using GraphPad Prism v.9.0 (Graphpad Software) and shown as mean ± s.e.m. from at least three independent experiments. Dissociation kinetics curves were evaluated with a single exponential function.

Test [5] relates to M2R. Details: method as in PMID 23441648. The following applies: super agonist of M2R; cited from earlier work.

The structures appear in SMILES notation.

Take `CCCC[N+]1(C)C2CC(OC(=O)C(CO)c3ccccc3)CC1C1OC12` (centres unmarked) [NBS, N-butylscopolamine]: the “ligand efficacy class suggested by amide-I spectral features” value with M2R [1] is listed as “antagonist”. As to `CC(=O)OC(C)C[N+](C)(C)C` (centres unmarked) [Meta, Metacholine], the “Gi-protein activity relative to ACh (in words)” value on M2R [2] is recorded as “almost identical Gi-protein activity as ACh”. Take `CC(=O)OCC[N+](C)(C)C` [ACh, acetylcholine]: the “amide-I band intensity during dissociation phase after buffer exchange” value in the test with M2R [3] was “decreased gradually”. In the case of `C[N+](C)(C)CCOC(N)=O` [Carb, Carbamylcholine], the “Gi-protein activity relative to ACh (in words)” value on M2R [2] is given as “almost identical Gi-protein activity as ACh”.

For the molecule `C[N+](C)(C)CC#CCOC(=O)Nc1cccc(Cl)c1` [McN, McN-A-343], on M2R [2], the “Gi-protein activity relative to ACh (in words)” value is “decreased Gi signalling relative to ACh”. In addition, the “dissociation kinetics (koff) from M2R (in words)” value (shortened to “dissociation kinetics (koff)”) with M2R [4] is reported as “fast dissociation kinetics”. Consider `CC(C)[N+]1(C)[C@@H]2CC[C@H]1C[C@@H](OC(=O)C(CO)c1ccccc1)C2` (some centres unmarked) [Ipra, Ipratropium], for which the “Gi-dissociation activity (Emax normalized to ACh)” value on M2R [2] (Span normalized to ACh) is given as 6.3 % of ACh. Besides, in the test with M2R [1], the “population of active-like M2R conformation from amide-I band ratio (in words)” value was “higher ratio of active conformation than Atro and Scop”. Turning to `C[N+](C)(C)CC#CCOC1=NOCC1` [Ixo, Iperoxo], the “Gi-protein activity relative to ACh (in words)” value on M2R [2] is given as “higher G-protein activation than ACh”. Further, the “dissociation kinetics (koff)” value in the test on M2R [4] is “slowest dissociation kinetics”. Further, the “potency relative to ACh” value in the test on M2R [5] is listed as 100 fold. For the molecule `CN1[C@@H]2CC[C@H]1C[C@@H](OC(=O)C(CO)c1ccccc1)C2` (some centres unmarked) [Atro, atropine], the “amide-I band intensity during dissociation phase after buffer exchange” value in the test on M2R [3] is recorded as “did not decrease”.

As for `CC[N+]1(C)[C@@H]2CC(OC(=O)[C@H](CO)c3ccccc3)C[C@H]1[C@@H]1O[C@@H]12` (some centres unmarked) [Oxitro, Oxitropium], the “ligand efficacy class suggested by amide-I spectral features” value in the test on M2R [1] is listed as “inverse agonist”. With `CCCCCCOc1nsnc1C1=CCCN(C)C1` [Xano, Xanomeline], at M2R [2], the “Gi-protein activity relative to ACh (in words)” value is on record as “decreased Gi signalling relative to ACh”. In the test on M2R [4], the “dissociation kinetics (koff)” value is “extremely slow”. For the same molecule, the “population of active-like M2R conformation from amide-I band ratio (in words)” value with M2R [1] was “higher population of active-like M2R conformation”. For the molecule `CN1[C@@H]2C[C@@H](OC(=O)[C@H](CO)c3ccccc3)C[C@H]1[C@@H]1O[C@@H]12` [Scop, Scopolamine], the “Gi-protein activity relative to ACh (in words)” value on M2R [2] is on record as “undetectable”.

The values above are taken from article PMC8635417 (Communications Biology, 2021).
